Paper PMC11341359, “Assessing the immunogenicity risk of salmon calcitonin peptide impurities using in silico and in vitro methods” (Frontiers in Pharmacology, 2024)
Bridge positions count the residues as written; N and C are the ends. Ends that are not written are not given here.

Tested on: human donor PBMCs
Experiment: In vitro immunogenicity protocol (IVIP) naïve T-cell assay, IFNγ FluoroSpot
Assay type: cell-based
Conditions: individual full-length peptides at 20 μg/mL, 14 days, then 48 h IFNγ FluoroSpot; 16 donors; positive: SFC > 50 per 10^6, SI ≥ 2, p < 0.05 vs medium
Description: To improve the sensitivity of the T-cell assays, fresh (not frozen) blood samples were obtained from human blood donors for the T-cell assays (internal observations). Specifically, PBMCs were isolated from leukocyte reduction filters obtained from the Rhode Island Blood Center (RIBC) in Providence, RI. To confirm the sufficient breadth of HLA coverage in the donor cohort, high-resolution (4-digit) class II HLA haplotyping of donors was performed at the Transplant Immunology Laboratory at Hartford Hospital in Hartford, CT, using the sequence-specific oligonucleotide method (SSP-PCR). […] supertype alleles were expressed by the donor PBMCs used in the assays reported here (HLA DRB1*0301, *0401, *0701, *1101, *1301, and *1501). The HLA identified for the cohort of subjects used in this study is representative of 81.81% of the HLA alleles expressed by the global population. Forty percent of the donors were female and 60% of the donors were male, and their ages ranged from 17 to 83 years. Donor cohort demographic information and HLA types for each donor are provided in Supplementary Figure S1. To measure the naïve T-cell response to salmon calcitonin and impurity peptides, cells were plated at a density of 2.5 × 10^5 cells per well in 96-well U-bottom cell plates in RPMI 1640 cell culture medium supplemented with IL-2 (10 ng/mL) and IL-7 (20 ng/mL) (Gibco). The cells were incubated with […]®, or a synthetic salmon calcitonin peptide, or individual peptide impurities, at a concentration of 20 μg/mL for 14 days at 37°C/5% CO2, with medium exchanges that include cytokine support (IL-2 and IL-7) on days 4, 7, and 11. A concentration of 20 μg/mL (5.8 μM) was the dose selected for the SCT API and the four selected impurities, following a dose-ranging study performed with […]® to determine the maximum dose at which a T-cell response could be observed with no observed toxicity to the cells. The dose-ranging study was performed following the same protocol as described above. The following control antigens were used in the T-cell assays for each of the PBMC samples: positive controls, keyhole limpet hemocyanin (KLH; Thermo Fisher), and the antigenic peptide pool CEFT (ImmunoSpot). In addition, human serum albumin (HSA; Sigma-Aldrich) was used as a negative control antigen, and phytohemagglutinin (PHA; Thermo Fisher), a T-cell mitogen, was used to confirm T-cell functionality. […] Responses were considered positive if (1) the number of spots was at least twice the background (stimulation index [SI] ≥ 2); (2) there were greater than 50 spot-forming cells (SFCs) per 1.0 × 10^6 PBMCs; and (3) responses were statistically different from the media (Student's t-test). Each of the test articles (SCT API, RLD, or impurity peptide) and each of the positive and negative controls were evaluated in nine replicate wells containing donor PBMCs. Following the 14-day incubation, cells in the nine replicate wells were collected, pooled by the treatment condition, and re-plated in triplicate on a precoated anti-human IFNγ FluoroSpot plate (Mabtech) at a concentration of 1.0 × 10^5 cells per well in the presence of an appropriate test article or control reagent in supplemented RPMI 1640 culture medium. The FluoroSpot plates were incubated for 48 h at 37°C/5% CO2. After 48 h, FluoroSpot plates were developed according to the manufacturer's directions. Spots were counted on an iSpot Spectrum FluoroSpot reading system (AID, Strassberg, Germany) using software 7.0, build 14790. Fluorophore-specific spot parameters were defined using the spot size, spot intensity, and spot gradient. A spot separation algorithm was applied for optimal spot detection. Analysis and counting of spots were performed by unbiased experts at ZellNet Consulting, Inc. (Fort Lee, NJ).

CSNLSTCVLGKLSQELH (Ac-K) LQTYPRTNTGSGTP (disulfide) [06-LYS-AC18_SCT_18X, full-length SCT impurity, acetylation of lysine 18]
Percentage of Responding Donors: 56% | Responding Donors: 9

CSNLSTCVLGKLSQELHKLETYPRTNTGSGTP (disulfide) (disulfide 1-7 (inferred)) [07_Q20E_SCT, full-length SCT impurity, glutamine 20 deamidated to glutamic acid]
Percentage of Responding Donors: 56% | Responding Donors: 9

CSNLSTCVLGKLSQELHKLQTYPRTNTGGSGTP (disulfide 1-7 (inferred)) [12_ENDO-GLY28_SCT, full-length SCT impurity, insertion of glycine at position 28]
Percentage of Responding Donors: 63% | Responding Donors: 10

CSNLSTCVLGKLSQELHKLQTYPRTNTGSGTTP (disulfide 1-7 (inferred)) [17_ENDO-THR31_SCT, full-length SCT impurity, insertion of threonine at position 31]
Percentage of Responding Donors: 69% | Responding Donors: 11
